{
  "source": "patent US20230285570A1",
  "about": "“THERAPEUTICALLY USEFUL CURE-PRO MOLECULES FOR E3 LIGASE MEDIATED DEGRADATION OF PROTEINS, AND METHODS OF MAKING AND USING THEM” (CORNELL UNIVERSITY, priority 2020, published 2023)",
  "key": {"BRD2": {"biological_target": "T1, BRD2 (Homo sapiens, UniProt P25440)", "T1 construct": "endogenous in cells; host or cells: HCT116", "T1 sequence (P25440 whole entry)": "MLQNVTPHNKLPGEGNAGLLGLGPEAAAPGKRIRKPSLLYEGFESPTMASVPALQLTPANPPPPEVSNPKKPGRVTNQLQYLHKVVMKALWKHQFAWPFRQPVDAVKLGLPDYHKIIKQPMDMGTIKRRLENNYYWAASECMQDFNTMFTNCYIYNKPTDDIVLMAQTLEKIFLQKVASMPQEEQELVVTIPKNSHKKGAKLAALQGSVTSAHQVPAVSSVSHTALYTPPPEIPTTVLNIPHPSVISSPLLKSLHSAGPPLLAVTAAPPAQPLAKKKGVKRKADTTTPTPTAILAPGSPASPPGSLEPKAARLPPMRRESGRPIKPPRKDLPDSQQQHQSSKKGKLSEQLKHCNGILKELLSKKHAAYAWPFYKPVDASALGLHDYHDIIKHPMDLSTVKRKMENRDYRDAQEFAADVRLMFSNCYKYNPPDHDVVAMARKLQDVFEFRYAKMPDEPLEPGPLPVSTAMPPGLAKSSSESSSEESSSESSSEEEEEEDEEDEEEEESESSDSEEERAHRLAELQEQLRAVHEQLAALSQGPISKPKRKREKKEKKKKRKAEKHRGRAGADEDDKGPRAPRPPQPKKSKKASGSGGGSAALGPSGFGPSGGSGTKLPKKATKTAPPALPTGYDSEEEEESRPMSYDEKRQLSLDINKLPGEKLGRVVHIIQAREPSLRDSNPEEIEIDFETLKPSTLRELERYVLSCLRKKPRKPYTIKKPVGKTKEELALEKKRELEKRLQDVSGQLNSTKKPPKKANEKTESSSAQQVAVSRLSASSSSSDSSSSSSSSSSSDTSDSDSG", "experiment": "BRD protein family degradation in HCT116 cells, Western blot: BRD2", "type": "cell-based", "details": "1:1 with MDM2 ligands 8310 and 8312 (each), HCT116, 24 h, 100 nM-10 μM", "protocol": "(§1) Namalwa, Ramosm HeLa, MCF7, or HT29 HCT116 cells (2.5-3×10^6) were treated for 24 hours with the indicated compounds solubilized in DMSO. The cells were washed in ice-cold PBS and were then lysed in RIPA lysis buffer (150 mM NaCl, 5 mM EDTA, 1% NP-40, 0.5% sodium deoxycholate, 0.1% SDS, 50 mM Tris, pH 8.0.) with Roche protease inhibitor complete cocktail and phosphatase inhibitors (10 mM sodium fluoride, 10 mM sodium pyrophosphate, 1 mM sodium orthovanadate and 20 mM β-glycerophosphate). The total protein concentrations were determined by Bradford Protein Assay (Pierce) and 10-20 μg of protein was loaded onto 4-15% Tris-Glycine gradient gels (Biorad). After standard gel electrophoresis, the separated proteins were transferred to PVDF membrane by wet transfer. The immunoblots were then blocked for 1 hour in 5% skim milk in TBST or 5% BSA in TBST, according to manufacturer's instructions, before an overnight incubation at 4° C. with indicated antibodies and membranes. […] Signal was detected with ECL Western Blotting Substrate (Pierce) and X-ray film processed with a Konica SRX-101 X-ray film processor or captured by Bio-Rad's Chemidoc Imaging system. […]"}, "BRD4 [1]": {"biological_target": "T2, BRD4 (Homo sapiens, UniProt O60885)", "experiment": "CURE-PRO-mediated BRD4 degradation in HCT116 cells, WES (ProteinSimple)", "type": "cell-based", "design": "endogenous in cells", "details": "for BRD4 degradation: 10 μM", "protocol": "All cell lines were purchased from ATCC or DSMZ and grown at 37° C. with 5% CO2. Human HeLa cells were cultured in complete growth medium (Dulbecco's modified Eagle's medium (DMEM) supplemented with 10% FBS); MCF7 cells were cultured in complete growth medium (Dulbecco's modified Eagle's medium (DMEM) supplemented with 10% FBS and 0.01 mg/ml human recombinant insulin (Sigma Aldrich); Namalwa and Ramos cells were cultured in complete growth medium (RPMI 1640 medium supplemented with 10% FBS); HCT116 and HT29 cells were cultured in complete growth medium (McCoy's 5a Medium supplemented with 10% FBS). For cellular degradation of BRD4 studies cells were seeded in a 12-well plate at 70-80% confluency, allowed to attach overnight, and incubated with the indicated compounds for the indicated time. When indicated, a 15-minute pretreatment with 10 μM pomalidomide, 10 μM VHL298, 10 μM Nutlin3a, 1 μM MG-132 or 1 μM Carfilzomib was performed before the addition of CURE-PROs. For washout studies, after CURE-PRO treatment, media was aspirated and incubated with complete medium for the indicated time before lysis.\nWES Simple analysis was performed on WES system (ProteinSimple-Biotechne) according to the manufacturer's instructions. Total protein concentrations of cell lysates were determined by the Pierce BCA kit (Thermo Fisher). 3 μL of 0.3 μg/μL of the protein lysate was loaded onto a 12- to 230-kDa WES assay plate (ProteinSimple) where 300 nL sample was withdrawn through a capillary, subjected to electrophoretic separation of proteins by size, and followed by the simultaneous, HRP-based detection of proteins using the Anti-Rabbit Detection Module (Proteinsimple: #DM-001). The electropherograms were checked then the automatic peak detection was manually corrected if it was required.\nHCT116 cells (3×10^6) were treated for 24 hours with the compounds solubilized in DMSO. Compounds were added at 1 μM-10 μM each. Standardized protein samples were electrophoresed and imaged as described in the WES ProteinSimple section above. FIGS. 59, 60, and 61 depict the concentration-dependence of CURE-PRO-mediated BRD4 degradation using MDM2 ligands.\nHCT116 cells (3×10^6) were treated for 24 hours with the compounds solubilized in DMSO. Compounds were added at 1 μM-10 μM each. Standardized protein samples were electrophoresed and imaged as described in the WES ProteinSimple section above. FIGS. 62 and 63 depict the concentration-dependence of CURE-PRO-mediated BRD4 degradation using MDM2 ligands.\nHCT116 cells (3×10^6) were treated for 24 hours with the compounds solubilized in DMSO. CURE-PRO monomers were added at 10 μM each and the proteasomal inhibitors at 1 μM. Standardized protein samples were electrophoresed and imaged as described in the WES ProteinSimple section above. FIG. 68 depicts the dependence of the proteasome for CURE-PRO-mediated BRD4 degradation."}, "BRD4 [2]": {"biological_target": "T2, BRD4", "experiment": "BRD protein family degradation in HCT116 cells, Western blot: BRD4", "type": "cell-based", "design": "endogenous in cells", "protocol": "Namalwa, Ramosm HeLa, MCF7, or HT29 HCT116 cells (2.5-3×10^6) were treated for 24 hours with the indicated compounds solubilized in DMSO. The cells were washed in ice-cold PBS and were then lysed in RIPA lysis buffer (150 mM NaCl, 5 mM EDTA, 1% NP-40, 0.5% sodium deoxycholate, 0.1% SDS, 50 mM Tris, pH 8.0.) with Roche protease inhibitor complete cocktail and phosphatase inhibitors (10 mM sodium fluoride, 10 mM sodium pyrophosphate, 1 mM sodium orthovanadate and 20 mM β-glycerophosphate). The total protein concentrations were determined by Bradford Protein Assay (Pierce) and 10-20 μg of protein was loaded onto 4-15% Tris-Glycine gradient gels (Biorad). After standard gel electrophoresis, the separated proteins were transferred to PVDF membrane by wet transfer. The immunoblots were then blocked for 1 hour in 5% skim milk in TBST or 5% BSA in TBST, according to manufacturer's instructions, before an overnight incubation at 4° C. with indicated antibodies and membranes. Membranes were then incubated with the appropriate horseradish peroxidase-conjugated secondary antibodies (1:5,000 dilution) for 1 h at room temperature and the bands were visualized using the Clarity Max Western ECL Substrate (Biorad) and the ChemiDoc Imaging System (Biorad). Signal was detected with ECL Western Blotting Substrate (Pierce) and X-ray film processed with a Konica SRX-101 X-ray film processor or captured by Bio-Rad's Chemidoc Imaging system.\nHCT116 cells (3×10^6) were treated for 24 hours with the compounds solubilized in DMSO. Compounds were added at 100 nM-10 μM each. Standardized protein samples were electrophoresed and imaged as described in the Immunoblotting section above. FIGS. 64 and 65 depict the concentration-dependence of CURE-PRO-mediated BRD2 and BRD3 degradation using MDM2 ligands."}, "SLC19A1": {"tested_on": "SLC19A1", "experiment": "RT-PCR of c-MYC downstream target gene SLC19A1 in HeLa cells", "type": "cell-based, Human", "details": "combined with MDM2 ligand 8312, HeLa, 10 μM each, 24 h", "protocol": "The suppression of the expression of the downstream c-MYC target, SLC19A1, was measured by RT-PCR using Power SYBR® Green Cells-to-Ct™ Kit (Life Technologies). Adherent cells were plated on 96 well plates at 5,000 cells per well were treated for 24 h with monomer compounds and compounds capable of reversible interactions (1 nM-100 μM). Cells were subsequently washed in ice-cold PBS processed according to the manufacturer's instructions. Quantitative real-time PCR was performed using a ViiA™ 7 Real-time PCR System (Applied Biosystems, Foster City, Calif., USA). GAPDH and ACTB served as internal controls.\nHeLa cells (1×10^4) were treated for 24 hours in 96 well plates with the compounds solubilized in DMSO. Compounds were added at 10 μM each and RNA expression measured by the Cells-to Ct method described above (Thermofisher)."}, "BRD4 [3]": {"biological_target": "T2, BRD4", "experiment": "Summary of BRD4 degradation by CURE-PRO pairs, estimated from Western Blot or WES", "type": "cell-based", "design": "endogenous in cells", "how_it_was_run": "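Namalwa, Ramos, HeLa, MCF7, HT29 or HCT116 cells treated 24 h with compounds in DMSO; RIPA lysates analysed by Western blot (ECL) or capillary WES immunodetection. Check mark denotes 30% to 70% or higher protein degradation.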"}, "BRD3": {"biological_target": "T3, BRD3 (Homo sapiens, UniProt Q15059)", "T3 construct": "endogenous in cells; host or cells: HCT116", "T3 sequence (Q15059 whole entry)": "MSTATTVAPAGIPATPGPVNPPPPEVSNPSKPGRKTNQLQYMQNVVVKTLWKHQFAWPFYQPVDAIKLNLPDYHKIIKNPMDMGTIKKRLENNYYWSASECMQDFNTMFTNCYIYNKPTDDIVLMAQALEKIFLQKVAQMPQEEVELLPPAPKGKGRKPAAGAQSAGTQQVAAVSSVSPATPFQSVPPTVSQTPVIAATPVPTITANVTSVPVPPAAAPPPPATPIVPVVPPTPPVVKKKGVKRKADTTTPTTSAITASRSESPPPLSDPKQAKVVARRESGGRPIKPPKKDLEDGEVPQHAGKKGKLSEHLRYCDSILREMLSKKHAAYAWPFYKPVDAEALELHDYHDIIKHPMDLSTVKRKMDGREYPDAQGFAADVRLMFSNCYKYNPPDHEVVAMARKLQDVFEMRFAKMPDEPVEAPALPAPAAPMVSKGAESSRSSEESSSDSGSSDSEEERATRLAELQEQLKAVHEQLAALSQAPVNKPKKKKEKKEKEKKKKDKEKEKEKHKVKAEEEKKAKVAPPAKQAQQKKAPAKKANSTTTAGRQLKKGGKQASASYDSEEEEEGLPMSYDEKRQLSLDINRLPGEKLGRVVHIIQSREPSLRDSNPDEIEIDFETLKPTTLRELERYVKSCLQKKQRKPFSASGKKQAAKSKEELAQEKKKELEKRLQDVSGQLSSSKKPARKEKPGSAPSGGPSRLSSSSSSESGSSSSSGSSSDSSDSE", "experiment": "BRD protein family degradation in HCT116 cells, Western blot: BRD3", "type": "cell-based", "details": "1:1 with MDM2 ligands 8310 and 8312 (each), HCT116, 24 h, 100 nM-10 μM", "protocol": "as §1"}, "MV-4-11 cells": {"tested_on": "MV-4-11 cells", "experiment": "CellTiter-Glo cell viability, MV-4-11 cells", "type": "cell-based", "details": "co-dosed 1:1 with CRBN ligand 8049, MV-4-11, 24 h, 1 nM-100 μM each", "how_it_was_run": "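Viability by CellTiter-Glo luminescence. One protocol: 5×10^4 MV-4-11 cells, 24 h, compounds at 1 nM-100 μM each; other: 1×10^4 cells, 72 h, 10 nM-100 μM each. BRD ligands combined 1:1 with CRBN ligands; dose-response curves fitted.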"}},
  "note": "“Also recorded” adds a separate entry of the source.",
  "data": [
    {"smiles": "CCNC(=O)C[C@@H]1N=C(c2ccc(Cl)cc2)c2cc(OCCNC(=O)c3cccc(O)c3O)ccc2-n2c(C)nnc21", "note": "[BRD-N25]", "values": [
      {"measurement": "BRD2 degradation", "setting": "BRD2", "value": "BRD2 to a lesser extent; also recorded: Degradation is evident"},
      {"measurement": "BRD4 degradation with proteasome inhibitors", "setting": "BRD4 [1]; 1:1 with 8310 at 10 μM, pre-incubation with MG-132 and Carfilzomib 1 μM, HCT116", "value": "inhibited by the pre-incubation with MG-132 and Carfilzomib; also recorded: inhibited with the proteasome inhibitors, MG-132 and Carfilzomib"},
      {"measurement": "BRD4 degradation", "setting": "BRD4 [1]; 1:1 with MDM2 ligand 8310, HCT116, 24 h", "value": "caused BRD4 degradation; also recorded: marked BRD4 degradation"},
      {"measurement": "BRD4 degradation", "setting": "BRD4 [1]; 1:1 with MDM2 ligand 8312, HCT116, 24 h", "value": "caused BRD4 degradation"},
      {"measurement": "BRD4 degradation", "setting": "BRD4 [2]; 1:1 with MDM2 ligands 8310 and 8312 (each), HCT116, 24 h, 100 nM-10 μM", "value": "caused BRD4 degradation; also recorded: Degradation is evident"},
      {"measurement": "selectivity of degradation among BRD2, BRD3 and BRD4", "setting": "BRD4 [2]; with MDM2 ligands 8310 and 8312, HCT116, Western blot", "value": "some selectivity for BRD3 and BRD4 over BRD2 for 8310 is noted"},
      {"measurement": "suppression of SLC19A1 expression", "setting": "SLC19A1", "value": "suppressed more substantially"},
      {"measurement": "Degradation of BRD4, combination with MDM2 ligand 8310", "setting": "BRD4 [3]; Table 5, aromatic 1,2-diol BRD4 ligand + 8310", "value": "√ (A black check mark indicates efficacy of 30% to 70% or higher protein degradation)"},
      {"measurement": "Degradation of BRD4, combination with MDM2 ligand 8312", "setting": "BRD4 [3]; Table 5, aromatic 1,2-diol BRD4 ligand + 8312", "value": "√ (A black check mark indicates efficacy of 30% to 70% or higher protein degradation)"},
      {"measurement": "BRD3 degradation", "setting": "BRD3", "value": "degradation of BRD3; also recorded: Degradation is evident"},
      {"measurement": "loss of cellular viability (toxicity)", "setting": "MV-4-11 cells", "value": "concentration-dependent loss in cellular viability; also recorded: increased toxicity"}
    ]}
  ]
}
